Test results taken from article PMC4511007 (PLoS ONE, 2015).
Where two headings read alike, the source gives them in different places.

How the values were obtained:
[1] = system: RV venom PLA2; assay: Indirect haemolytic activity (RV venom PLA2 inhibition); assay type: biochemical, Vipera russelli; details: 1 μg RV venom pre-incubated with compound 10 min at 37°C, NS: Not Significant
[2] = biological target: VRV-PLA2-VIII (Daboia russelii, UniProt P59071); assay: biochemical; design: species or system Vipera russelli
VRV-PLA2-VIII, sequence (P59071 whole entry, looked up): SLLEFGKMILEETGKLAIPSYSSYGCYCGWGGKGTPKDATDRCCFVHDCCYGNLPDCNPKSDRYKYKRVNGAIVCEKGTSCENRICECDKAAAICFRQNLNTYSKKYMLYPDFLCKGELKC

SMILES	IC50 [1] [µM]	IC50 [2] [µM]	melting point [°C]	IC50 ([2]; read-out: IC50 (μM) VRV-PLA2-VIII) [µM]
CC(=O)c1c(C)nc2c(-c3ccc(Cl)c(C(F)(F)F)c3)cccn12 [3a, 1-(8-(4-chloro-3-(trifluoromethyl)phenyl)-2-methylimidazo[1,2-a]pyridin-3-yl)ethanone]	110	155	141 to 143	
CC(=O)c1c(C)nc2c(-c3ccc(OCc4ccccc4)c(F)c3)cccn12 [3b, 1-(8-(4-(benzyloxy)-3-fluorophenyl)-2-methylimidazo[1,2-a]pyridin-3-yl)ethanone]	> 500	140	154 to 156	
CC(=O)c1c(C)nc2c(-c3ccccc3)cccn12 [3c, 1-(2-methyl-8-phenylimidazo[1,2-a]pyridin-3-yl)ethanone]	194		160 to 162	
CC(=O)c1c(C)nc2c(-c3cccc(Cl)c3)cccn12 [3d, 1-(8-(3-chlorophenyl)-2-methylimidazo[1,2-a]pyridin-3-yl)ethanone]	59.1	89.1	114 to 116	
COc1cccc(-c2cccn3c(C(C)=O)c(C)nc23)c1 [3e, 1-(8-(3-methoxyphenyl)-2-methylimidazo[1,2-a]pyridin-3-yl)ethanone]	46.4	65.3	116 to 119	
CC(=O)c1c(C)nc2c(-c3cccc4ccccc34)cccn12 [3f, 1-(2-methyl-8-(naphthalen-1-yl)imidazo[1,2-a]pyridin-3-yl)ethanone]	14.3	23.1	179 to 182	
CC(=O)c1c(C)nc2c(-c3ccc(Cl)cc3)cccn12 [3g, 1-(8-(4-chlorophenyl)-2-methylimidazo[1,2-a]pyridin-3-yl)ethanone]	219	195	111 to 114	
CCC(CCc1cccn2c(C(C)=O)c(C)nc12)C(=O)NC1CCCC1 (centres unmarked) [3h, 4-(3-acetyl-2-methylimidazo[1,2-a]pyridin-8-yl)-N-cyclopentyl-2-ethylbutanamide]	105	114	117 to 119	
COc1cccc(-c2cccn3c(C(C)=O)c(C)nc23)c1F [3i, 1-(8-(2-fluoro-3-methoxyphenyl)-2-methylimidazo[1,2-a]pyridin-3-yl)ethanone]	123	135	190 to 192	
CC(=O)c1c(C)nc2c(-c3ccccc3C)cccn12 [3j, 1-(2-methyl-8-(o-tolyl)imidazo[1,2-a]pyridin-3-yl)ethanone]	166	189	157 to 159	
CC(=O)c1c(C)nc2c(-c3ccc(C(F)(F)F)cc3)cccn12 [3k, 1-(2-methyl-8-(4-(trifluoromethyl)phenyl)imidazo[1,2-a]pyridin-3-yl)ethanone]	> 500		121 to 123	> 100
CCc1ccc(-c2cccn3c(C(C)=O)c(C)nc23)cc1 [3l, 1-(8-(4-ethylphenyl)-2-methylimidazo[1,2-a]pyridin-3-yl)ethanone]	> 500	43.2	169 to 172	
